Data reported in patent publication US20200306210A1 (ZOGENIX INTERNATIONAL LIMITED, priority 2017, published 2020).
Counter-ions that a name gives are not always drawn.

Test system: subjects with Dravet syndrome
Test: Study 1503: open-label long-term extension, CGI-I at baseline and final visit
Type: in vivo, Human
Description: Study 1503 was an open-label, long-term safety study of ZX008 in subjects with Dravet syndrome who successfully completed 14 weeks of treatment in 1501, 1502, or 1504 Cohorts 1 and 2. […] CGI-S(baseline scores) were determined at entry into 1503 (i.e., after completing a blinded 16 week trial) and then again at each patient's final visit. FIGS. 7 and 8, and Tables 3 and 4 present numbers of patients having each of the 7 ratings and statistical calculations of improvements.
The CGI scale measures the change in the subject's clinical status from a specific point in time, i.e., the Baseline Period (and also referred to as the CGI-S, an initial ranking of severity). The CGI rating scale permits a global evaluation of the subject's improvement over time.

CCNC(C)Cc1cccc(C(F)(F)F)c1 (stereo not drawn) [ZX008, fenfluramine hydrochloride]
CGI-I investigator, 1 = Very much improved, % of subjects (OLE Baseline): (15.8) %
CGI-I investigator, 1 = Very much improved, N of subjects (OLE Baseline): 35
CGI-I investigator, 2 = Much improved, % of subjects (OLE Baseline): (24.4) %
CGI-I investigator, 2 = Much improved, N of subjects (OLE Baseline): 54
CGI-I investigator, 3 = Minimally improved, % of subjects (OLE Baseline): (20.8) %
CGI-I investigator, 3 = Minimally improved, N of subjects (OLE Baseline): 46
CGI-I investigator, 4 = No change, % of subjects (OLE Baseline): (32.6) %
CGI-I investigator, 4 = No change, N of subjects (OLE Baseline): 72
CGI-I investigator, 5 = Minimally worse, % of subjects (OLE Baseline): (5.0) %
CGI-I investigator, 5 = Minimally worse, N of subjects (OLE Baseline): 11
CGI-I investigator, 6 = Much worse, % of subjects (OLE Baseline): (1.4) %
CGI-I investigator, 6 = Much worse, N of subjects (OLE Baseline): 3
CGI-I investigator, 7 = Very much worse, % of subjects (OLE Baseline): (0.0) %
CGI-I investigator, 7 = Very much worse, N of subjects (OLE Baseline): 0
CGI-I investigator, Improved (1, 2, 3), % (OLE Baseline): (61.1) %
CGI-I investigator, Much/very much improved (1, 2), % (OLE Baseline): (40.3) %
CGI-I parent/caregiver, 1 = Very much improved, % of subjects (OLE Baseline): (16.4) %
CGI-I parent/caregiver, 1 = Very much improved, number of subjects (OLE Baseline): 37
CGI-I parent/caregiver, 2 = Much improved, % of subjects (OLE Baseline): (21.8) %
CGI-I parent/caregiver, 2 = Much improved, number of subjects (OLE Baseline): 49
CGI-I parent/caregiver, 3 = Minimally improved, % of subjects (OLE Baseline): (19.1) %
CGI-I parent/caregiver, 3 = Minimally improved, number of subjects (OLE Baseline): 43
CGI-I parent/caregiver, 4 = No change, % of subjects (OLE Baseline): (26.7) %
CGI-I parent/caregiver, 4 = No change, number of subjects (OLE Baseline): 60
CGI-I parent/caregiver, 5 = Minimally worse, % of subjects (OLE Baseline): (10.7) %
CGI-I parent/caregiver, 5 = Minimally worse, number of subjects (OLE Baseline): 24
CGI-I parent/caregiver, 6 = Much worse, % of subjects (OLE Baseline): (4.0) %
CGI-I parent/caregiver, 6 = Much worse, number of subjects (OLE Baseline): 9
CGI-I parent/caregiver, 7 = Very much worse, % of subjects (OLE Baseline): (1.3) %
CGI-I parent/caregiver, 7 = Very much worse, number of subjects (OLE Baseline): 3
CGI-I parent/caregiver, Improved (1, 2, 3), % (OLE Baseline): (57.3) %
CGI-I parent/caregiver, Much/very much improved (1, 2), % (OLE Baseline): (38.2) %
CGI-I investigator rating, Median (OLE Baseline, N 221, 7-point scale): 3.0
CGI-I investigator rating, Mean (OLE Baseline, N 221, scale 1 very much improved to 7 very much worse): 2.9
CGI-I parent/caregiver rating, Median (OLE Baseline, N 225, 7-point scale): 3.0
CGI-I parent/caregiver rating, Mean (OLE Baseline, N 225, scale 1 very much improved to 7 very much worse): 3.1
CGI-I investigator, 1 = Very much improved, % of subjects (OLE Final Visit): (27.6) %
CGI-I investigator, 1 = Very much improved, N of subjects (OLE Final Visit): 70
CGI-I investigator, 2 = Much improved, % of subjects (OLE Final Visit): (36.6) %
CGI-I investigator, 2 = Much improved, N of subjects (OLE Final Visit): 93
CGI-I investigator, 3 = Minimally improved, % of subjects (OLE Final Visit): (21.3) %
CGI-I investigator, 3 = Minimally improved, N of subjects (OLE Final Visit): 54
CGI-I investigator, 4 = No change, % of subjects (OLE Final Visit): (7.9) %
CGI-I investigator, 4 = No change, N of subjects (OLE Final Visit): 20
CGI-I investigator, 5 = Minimally worse, % of subjects (OLE Final Visit): (5.5) %
CGI-I investigator, 5 = Minimally worse, N of subjects (OLE Final Visit): 14
CGI-I investigator, 6 = Much worse, % of subjects (OLE Final Visit): (1.2) %
CGI-I investigator, 6 = Much worse, N of subjects (OLE Final Visit): 3
CGI-I investigator, 7 = Very much worse, % of subjects (OLE Final Visit): (0.0) %
CGI-I investigator, 7 = Very much worse, N of subjects (OLE Final Visit): 0
CGI-I investigator, Improved (1, 2, 3), % (OLE Final Visit): (85.4) %
CGI-I investigator, Much/very much improved (1, 2), % (OLE Final Visit): (64.2) %
CGI-I parent/caregiver, 1 = Very much improved, % of subjects (OLE Final Visit): (27.0) %
CGI-I parent/caregiver, 1 = Very much improved, number of subjects (OLE Final Visit): 67
CGI-I parent/caregiver, 2 = Much improved, % of subjects (OLE Final Visit): (35.5) %
CGI-I parent/caregiver, 2 = Much improved, number of subjects (OLE Final Visit): 88
CGI-I parent/caregiver, 3 = Minimally improved, % of subjects (OLE Final Visit): (19.8) %
CGI-I parent/caregiver, 3 = Minimally improved, number of subjects (OLE Final Visit): 49
CGI-I parent/caregiver, 4 = No change, % of subjects (OLE Final Visit): (7.7) %
CGI-I parent/caregiver, 4 = No change, number of subjects (OLE Final Visit): 19
CGI-I parent/caregiver, 5 = Minimally worse, % of subjects (OLE Final Visit): (5.2) %
CGI-I parent/caregiver, 5 = Minimally worse, number of subjects (OLE Final Visit): 13
CGI-I parent/caregiver, 6 = Much worse, % of subjects (OLE Final Visit): (4.0) %
CGI-I parent/caregiver, 6 = Much worse, number of subjects (OLE Final Visit): 10
CGI-I parent/caregiver, 7 = Very much worse, % of subjects (OLE Final Visit): (0.8) %
CGI-I parent/caregiver, 7 = Very much worse, number of subjects (OLE Final Visit): 2
CGI-I parent/caregiver, Improved (1, 2, 3), % (OLE Final Visit): (82.3) %
CGI-I parent/caregiver, Much/very much improved (1, 2), % (OLE Final Visit): (62.5) %
CGI-I parent/caregiver rating, Median (OLE Final Visit, n 248, 7-point scale): 2.0
CGI-I parent/caregiver rating, Mean (OLE Final Visit, n 248, scale 1 very much improved to 7 very much worse): 2.4
CGI-I investigator rating, Median (OLE Final Visit, n 254, 7-point scale): 2.0
CGI-I investigator rating, Mean (OLE Final Visit, n 254, scale 1 very much improved to 7 very much worse): 2.3
